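Five compound concentrations were applied to cells in 96-well plates for 48 hours; endpoints were derived by simple linear interpolation of the resulting dose-response curve. Abbreviation: GI50, concentration required for 50% inhibition of growth.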 The source made the active and inactive calls. Cut-off read from the data, not from the text of the source: active = GI50 up to about 1.1 µM and inactive = higher.
What was measured:
Assay in all cases: growth of human tumour cells (NCI), 48 h
[1] = system: NCI-H522
[2] = system: M14
[3] = system: SNB-19
[4] = system: HCT-116
[5] = system: ACHN
[6] = system: NCI-H460
[7] = system: CCRF-CEM
[8] = system: UACC-257
[9] = system: EKVX
[10] = system: OVCAR-8
[11] = system: SW-620
[12] = system: RXF 393
[13] = system: LOX IMVI
[14] = system: Malme-3M
[15] = system: U-251
[16] = system: A549
[17] = system: OVCAR-4
[18] = system: TK-10
[19] = system: SF-268

Row | SMILES | GI50 [1] | GI50 [2] | GI50 [3] | GI50 [4] | GI50 [5] | GI50 [6] | GI50 [7] | GI50 [8] | GI50 [9] | GI50 [10] | GI50 [11] | GI50 [12] | GI50 [13] | GI50 [14] | GI50 [15] | GI50 [16] | GI50 [17] | GI50 [18] | GI50 [19]
1 | CC[P+](C)(Cc1ccccc1)c1ccccc1 (stereo not given) | 44.2 µM (inactive) | > 100 µM (inactive) | > 100 µM (inactive) | > 100 µM (inactive) | > 100 µM (inactive) | > 100 µM (inactive) | > 100 µM (inactive) | > 100 µM (inactive) | > 100 µM (inactive) | > 100 µM (inactive) | > 100 µM (inactive) | > 100 µM (inactive) | > 100 µM (inactive) | 91.8 µM (inactive) | 59 µM (inactive) | > 100 µM (inactive) | > 100 µM (inactive) | > 100 µM (inactive) | 
2 | Cn1c(=O)c2c(ncn2Cc2ccc(O)c([N+](=O)[O-])c2)n(C)c1=O | > 100 µM (inactive) | > 100 µM (inactive) | > 100 µM (inactive) | > 100 µM (inactive) | > 100 µM (inactive) | > 100 µM (inactive) | > 100 µM (inactive) | > 100 µM (inactive) | > 100 µM (inactive) | > 100 µM (inactive) | > 100 µM (inactive) |  | > 100 µM (inactive) |  | > 100 µM (inactive) | > 100 µM (inactive) | > 100 µM (inactive) | > 100 µM (inactive) | > 100 µM (inactive)
3 | O=C(CC/C(CC(=O)c1ccc(Cl)cc1)=N\O)Nc1cccc(Cl)c1 |  | > 100 µM (inactive) | > 100 µM (inactive) |  | > 100 µM (inactive) | > 100 µM (inactive) | > 100 µM (inactive) | > 100 µM (inactive) | > 100 µM (inactive) | > 100 µM (inactive) | > 100 µM (inactive) |  | > 100 µM (inactive) | > 100 µM (inactive) | > 100 µM (inactive) | > 100 µM (inactive) | > 100 µM (inactive) | > 100 µM (inactive) | > 100 µM (inactive)
4 | CC(=O)NC(Cc1ccc(OP(=O)(OCc2ccc([N+](=O)[O-])o2)N(C)CCCCCl)cc1)C(=O)NC(C)c1ccc(OCC2CCCCC2)c(C(N)=O)c1 (stereo not given) | 3.73 µM (inactive) | 2.22 µM (inactive) | 3.9 µM (inactive) | 2.36 µM (inactive) | 8.15 µM (inactive) | 3.44 µM (inactive) | 1.33 µM (inactive) | 1.93 µM (inactive) |  | 7.48 µM (inactive) | 4.11 µM (inactive) | 2.02 µM (inactive) | 1.97 µM (inactive) | 1.88 µM (inactive) | 2.48 µM (inactive) | 4.12 µM (inactive) | 3.66 µM (inactive) | 11.4 µM (inactive) | 2.24 µM (inactive)
5 | CC(C)=CCC/C(C)=C/Cc1c2c(c3oc(-c4ccc(O)c(O)c4)c(O)c(=O)c3c1O)C=CC(C)(C)O2 | 0.916 µM (active) | 2.8 µM (inactive) | 5.85 µM (inactive) | 2.57 µM (inactive) | 2.22 µM (inactive) | 3.37 µM (inactive) | 1.79 µM (inactive) | 5.22 µM (inactive) |  | 2.05 µM (inactive) |  | 7.71 µM (inactive) |  | 0.665 µM (active) | 3.21 µM (inactive) | 3.87 µM (inactive) | 2.25 µM (inactive) | 5.24 µM (inactive) | 3.56 µM (inactive)
6 | O=C1Nc2ccccc2/C1=N/Nc1ccccc1Cl | 37.8 µM (inactive) | 96.2 µM (inactive) | 29.8 µM (inactive) | 23.7 µM (inactive) | 3.58 µM (inactive) | 18.2 µM (inactive) | 45.9 µM (inactive) | 35.3 µM (inactive) | 14.5 µM (inactive) | 20.6 µM (inactive) | > 100 µM (inactive) | 34.8 µM (inactive) | 69 µM (inactive) | 77.3 µM (inactive) | 17.6 µM (inactive) | 45.7 µM (inactive) | 3.57 µM (inactive) | 5.41 µM (inactive) | 29.8 µM (inactive)
7 | CCC1=C(CC)C1(C#N)[N+](=O)[O-] | > 100 µM (inactive) | > 100 µM (inactive) | > 100 µM (inactive) | > 100 µM (inactive) | > 100 µM (inactive) | > 100 µM (inactive) | > 100 µM (inactive) | > 100 µM (inactive) | > 100 µM (inactive) | > 100 µM (inactive) | > 100 µM (inactive) |  | > 100 µM (inactive) | > 100 µM (inactive) | > 100 µM (inactive) | > 100 µM (inactive) | > 100 µM (inactive) | > 100 µM (inactive) | > 100 µM (inactive)
8 | CC(=O)O[C@]12CCCCCC1C1(O)C(O)CCCCC12 (stereo not given in full) | > 100 µM (inactive) | > 100 µM (inactive) | > 100 µM (inactive) |  | > 100 µM (inactive) | > 100 µM (inactive) | > 100 µM (inactive) | > 100 µM (inactive) | > 100 µM (inactive) | > 100 µM (inactive) | > 100 µM (inactive) | > 100 µM (inactive) | > 100 µM (inactive) | > 100 µM (inactive) | > 100 µM (inactive) | > 100 µM (inactive) | > 100 µM (inactive) | > 100 µM (inactive) | > 100 µM (inactive)
